Measurements published in patent publication US10124012B2, “Method for treatment of hyperglycemia and hyperlipidemia” (priority 2016, dated 2018).

Columns and labels:
Type in all cases: in vivo, C57BL/6J mice
[1] = system: high-fat diet-fed C57BL/6J mouse; assay: Histopathology of liver (hepatocellular ballooning); settings: grade 0 absence, 1 few cells, 2 many cells (Table 4), HFD-fed mice
Description: Animal studies were performed and approved under the guidelines of the Institutional Animal Care and Use Committee in Taiwan (12 Mar. 2015). The 4-week old male C57BL/6J mice (total amount n=63) were obtained from the National Laboratory Animal Center (Taipei, Taiwan). After acclimatization for one week, all of the mice were randomly assigned into a control (CON) group and a high-fat diet (HFD) group. For the following 12 weeks, the CON group (n=9) received a control diet or a low-fat diet (Diet 12450B, Research Diets, Inc., New Brunswick, N.J., USA), while the HFD group (n=54) received a high-fat diet (Diet 12451, Research Diets, New Brunswick, N.J., USA). The low-fat diet was composed of protein 20%, carbohydrate 70% and fat 10%, whereas the high-fat diet was composed of protein 20%, carbohydrate 35%, and fat 45% (of total energy, % kcal). After HFD feeding for 8 weeks, the HFD group was randomly subdivided into six groups (n=9 per group) receiving different treatments and fed on HFD. […] The HF+AnK1, HF+AnK2, and HF+AnK3 groups are collectively termed AnK-treated HFD groups in the following examples. The CON mice were administered vehicle. All treatments were administered via oral gavage once daily. After administration for 4 weeks, all mice were fasted 12 hours, and blood was collected from the retro-orbital sinus under ether anesthesia. At the end of the experiment, the mice were sacrificed via carbon dioxide inhalation. Liver, adipose tissue, and skeletal muscle were collected and immediately stored at −80° C. for target gene analysis.
Parts of visceral adipose and liver specimens were fixed with formalin (200 g/kg) neutral buffered solution and embedded in paraffin. A series of 8 μm-thick sections was cut and stained with hematoxylin and eosin. For microscopic examination, a microscope (Olympus BX51, Olympus, Tokyo, Japan) was used and the images were photographed.
On the basis of previous study, the degree of hepatocellular ballooning is defined in TABLE 4: […]

aP2 = assay: Liver mRNA by semi-quantitative RT-PCR: aP2; settings: HFD-fed mice, oral gavage once daily 4 weeks, AnK 10, 20, 40, Feno 250, Metf 300 mg/kg/day, vs HF group
Source text: (§1) The 4-week old male C57BL/6J mice (total amount n=63) were obtained from the National Laboratory Animal Center (Taipei, Taiwan). After acclimatization for one week, all of the mice were randomly assigned into a control (CON) group and a high-fat diet (HFD) group. […] After HFD feeding for 8 weeks, the HFD group was randomly subdivided into six groups (n=9 per group) receiving different treatments and fed on HFD. […] The HF+AnK1, HF+AnK2, and HF+AnK3 groups are collectively termed AnK-treated HFD groups in the following examples. The CON mice were administered vehicle. All treatments were administered via oral gavage once daily. After administration for 4 weeks, all mice were fasted 12 hours, and blood was collected from the retro-orbital sinus under ether anesthesia. […]
(§2) Total RNA from liver tissue of mice was isolated with a Trizol Reagent (Molecular Research Center, Inc., Cincinnati, Ohio, USA) according to the manufacturer's instructions. The integrity of the extracted total RNA was examined by 2% agarose gel electrophoresis, and the RNA concentration was determined by the ultraviolet (UV) light absorbency at 260 nm and 280 nm (Spectrophotometer U-2800A, Hitachi). […]
(§3) Levels of mRNA of target genes were quantified by semi-quantitative reverse transcription polymerase chain reaction (RT-PCR). […] PCR products were analyzed by 2% agarose gel and stained with ethidium bromide.

PPARα = assay: Liver mRNA by semi-quantitative RT-PCR: PPARα; settings: HFD-fed mice, oral gavage once daily 4 weeks, AnK 10, 20, 40, Feno 250, Metf 300 mg/kg/day, vs HF group
Source text: as §1, §2, §3

SMILES | Hepatocellular ballooning Mean score ([1]; HF + Metf: metformin 300 mg/kg/day oral gavage 4 weeks) | mRNA levels of aP2 (aP2) | PPARα mRNA levels (PPARα) | Hepatocellular ballooning Mean score ([1]; HF + AnK1: AnK 10 mg/kg/day oral gavage 4 weeks) | Hepatocellular ballooning Mean score ([1]; HF + AnK2: AnK 20 mg/kg/day oral gavage 4 weeks) | Hepatocellular ballooning Mean score ([1]; HF + AnK3: AnK 40 mg/kg/day oral gavage 4 weeks)
CN(C)C(=N)N=C(N)N [Metf, metformin, reference compound] | 0.7 ± 0.2 | significantly decreased | increased |  |  | 
C=C(CC[C@@H](C)[C@H]1CC[C@H]2C3=C(C(=O)C[C@]12C)[C@@]1(C)CC[C@@H](O)[C@](C)(O)[C@@H]1C[C@@H]3O)C(C)C(=O)O (stereo partly drawn) [AnK, 3α,4β,7β-trihydroxy-4α-methylergosta-8,24(28)-dien-11-on-25S-26-oic acid] |  | significantly decreased | increased | 0.7 ± 0.2 | 0.5 ± 0.2 | 0.4 ± 0.2
